Where a SMILES comes first, the peptide text is derived from it. Bridges are numbered along the chain shown (N, C = ends).
Assays:
[1] = Preliminary PK study in rat; assay type: in vivo; settings: slow bolus IV injection of 49 mg/kg of NX210
Protocol: Therefore, NX210 PK in animals is followed by the measurement of its cyclic form NX218. First a preliminary PK study in rat was performed in order to validate the method for detecting NX218 in plasma then translated to monkey by performing a more robust PK study with repeated experiments. All PK studies were performed with NaCl 0.9% as vehicle.

[2] = In vitro conversion in rat plasma; assay type: in vitro ADME; settings: preliminary

Row | plasma concentration of NX218 over time [1] | conversion by oxidation in rat plasma [2] | Structure (SMILES)
1 | impossible to quantify from 3 hours | – | N=C(N)NCCC[C@@H]1NC(=O)[C@H](CO)NC(=O)[C@@H](NC(=O)[C@H](CO)NC(=O)[C@H](CO)NC(=O)[C@H](Cc2c[nH]c3ccccc23)NC(=O)CNC(=O)[C@H](CO)NC(=O)[C@@H](N)Cc2c[nH]c3ccccc23)CSSC[C@@H](C(=O)NCC(=O)O)NC(=O)[C@H](CO)NC1=O [NX218] (H-WSGWSSCSRSCG-OH; disulfide 7-11)
2 | – | rapidly converted into NX218 | N=C(N)NCCC[C@H](NC(=O)[C@H](CO)NC(=O)[C@H](CS)NC(=O)[C@H](CO)NC(=O)[C@H](CO)NC(=O)[C@H](Cc1c[nH]c2ccccc12)NC(=O)CNC(=O)[C@H](CO)NC(=O)[C@@H](N)Cc1c[nH]c2ccccc12)C(=O)N[C@@H](CO)C(=O)N[C@@H](CS)C(=O)NCC(=O)O [NX210, W-S-G-W-S-S-C-S-R-S-C-G] (H-WSGWSSCSRSCG-OH)

Source: patent publication US20230073781A1, “Systemic administration of peptides for the treatment of spinal cord injury and/or for remyelination” (AXOLTIS PHARMA, priority 2019, published 2023)
